Columns and labels:
[1] = biological target: horse serum butyrylcholinesterase (BChE) (Equus caballus, UniProt P81908)
Electric eel AChE = Electric eel AChE (Electrophorus electricus, UniProt O42275)
Sequence of Electric eel AChE (O42275 24-633): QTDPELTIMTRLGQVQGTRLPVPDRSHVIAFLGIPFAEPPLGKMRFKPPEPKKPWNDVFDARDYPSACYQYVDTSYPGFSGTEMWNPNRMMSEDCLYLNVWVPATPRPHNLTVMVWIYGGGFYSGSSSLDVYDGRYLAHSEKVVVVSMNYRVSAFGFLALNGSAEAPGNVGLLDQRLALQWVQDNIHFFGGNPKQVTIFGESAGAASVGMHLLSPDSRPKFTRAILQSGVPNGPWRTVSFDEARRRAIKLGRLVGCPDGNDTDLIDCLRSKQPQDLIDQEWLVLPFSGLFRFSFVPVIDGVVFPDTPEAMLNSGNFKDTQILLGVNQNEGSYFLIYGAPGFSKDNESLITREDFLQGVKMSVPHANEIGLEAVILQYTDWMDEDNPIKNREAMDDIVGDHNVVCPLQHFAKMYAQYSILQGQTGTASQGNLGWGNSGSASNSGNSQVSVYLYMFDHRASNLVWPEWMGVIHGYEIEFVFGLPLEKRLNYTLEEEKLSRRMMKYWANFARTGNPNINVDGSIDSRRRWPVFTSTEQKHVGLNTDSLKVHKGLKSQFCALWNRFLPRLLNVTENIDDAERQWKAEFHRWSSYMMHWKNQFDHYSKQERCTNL

Sequence of horse serum butyrylcholinesterase (BChE) (P81908 whole entry): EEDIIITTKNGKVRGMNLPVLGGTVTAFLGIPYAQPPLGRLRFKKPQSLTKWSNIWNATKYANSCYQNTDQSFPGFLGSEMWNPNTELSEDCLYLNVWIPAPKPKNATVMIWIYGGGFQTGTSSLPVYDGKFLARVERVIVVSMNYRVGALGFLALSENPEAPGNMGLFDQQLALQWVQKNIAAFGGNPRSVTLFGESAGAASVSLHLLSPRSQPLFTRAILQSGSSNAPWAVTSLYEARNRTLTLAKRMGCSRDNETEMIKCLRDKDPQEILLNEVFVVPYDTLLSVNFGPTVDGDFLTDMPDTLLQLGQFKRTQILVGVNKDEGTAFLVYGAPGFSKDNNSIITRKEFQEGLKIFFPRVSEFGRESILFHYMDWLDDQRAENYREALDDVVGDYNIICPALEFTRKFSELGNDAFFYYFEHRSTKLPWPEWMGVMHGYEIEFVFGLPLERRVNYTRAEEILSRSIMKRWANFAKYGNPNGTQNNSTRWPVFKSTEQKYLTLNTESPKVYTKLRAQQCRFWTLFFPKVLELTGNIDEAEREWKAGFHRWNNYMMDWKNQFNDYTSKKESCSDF

With `COc1ccc2c(=O)oc3c(OC)cc(CCN(C)C)c4c(=O)oc1c2c34` [Compound 1, 1-(2-dimethylaminoethyl)-3,8-dimethoxychromeno[5,4,3-cde]chromene-5,10-dione] the “Effect on BChE” value [1] was “no effect on BChE”.
In the case of `COc1c(O)cc2c3c1-c1ccccc1C[C@H]3NCC2` [Compound 2, 1-methoxy-5,6,6a,7-tetrahydro-4H-dibenzo[de,g]quinolin-2-ol (6aR)], the “Effect on AChE” value (Electric eel AChE) is reported as “effects on neither AChE nor BChE” and the “Effect on BChE” value [1] is reported as “effects on neither AChE nor BChE”.

Reference: PMC3526713 (Journal of natural products, 2006)
